Here are results for three compounds from ChEMBL document CHEMBL5335866, “Structure-Based Optimization of Selective and Brain Penetrant CK1δ Inhibitors for the Treatment of Circadian Disruptions” (ACS Med Chem Lett, 2024).

For data set [1], the target named is Receptor-interacting serine/threonine-protein kinase 2 (Homo sapiens) (UniProt O43353). Put plainly: Inhibition of RIPK2 (unknown origin) at 1 uM by radiometric assay relative to control.
Data set [2] is described as follows: Intrinsic clearance in rat liver microsomes at 1 uM preincubated for 5 mins followed by NADPH addition measured for 60 mins by LC-MS/MS analysis. The class given is ADME, Microsome. The conditions noted are these: time 65 min, read-out: CLH. (In general: Microsomes from liver hold many membrane-bound enzymes, among them those of drug oxidation.)
Data set [3] has as its target Mitogen-activated protein kinase kinase kinase 20 (Homo sapiens) (UniProt Q9NYL2). Put plainly: Inhibition of ZAK (unknown origin) at 1 uM by radiometric assay relative to control.
Data set [4] in a line: Volume of distribution at steady state in Sprague-Dawley rat at 1 mg/kg, iv measured for 24 hrs by LC-MS/MS analysis. The class given is ADME, organism-based. The conditions noted are these: in vivo, read-out: Vdss.
Data set [5] in a line: Solubility of compound at pH 7 measured for 2 to 5 days by HPLC analysis. It is filed as physicochemical. The conditions noted are these: buffer, time 2-5 day.
The nature of data set [6]: AUC (infinity) in Sprague-Dawley rat at 5 mg/kg, po measured for 24 hrs by LC-MS/MS analysis. The class given is ADME, organism-based. Set-up: time 24 hrs, dose 5 mg/kg, route po. The conditions noted are these: in vivo.
Data set [7] concerns the target Citron Rho-interacting kinase (Homo sapiens) (UniProt O14578). Put plainly: Inhibition of CRIK (unknown origin) at 1 uM by radiometric assay relative to control.
The nature of data set [8]: Clearance in Sprague-Dawley rat at 1 mg/kg, iv measured for 24 hrs by LC-MS/MS analysis. It is filed as ADME, organism-based. The conditions noted are these: in vivo.
In data set [9] the target is T1, Serine/threonine-protein kinase NLK (Homo sapiens) (UniProt Q9UBE8).
T1 sequence (whole entry): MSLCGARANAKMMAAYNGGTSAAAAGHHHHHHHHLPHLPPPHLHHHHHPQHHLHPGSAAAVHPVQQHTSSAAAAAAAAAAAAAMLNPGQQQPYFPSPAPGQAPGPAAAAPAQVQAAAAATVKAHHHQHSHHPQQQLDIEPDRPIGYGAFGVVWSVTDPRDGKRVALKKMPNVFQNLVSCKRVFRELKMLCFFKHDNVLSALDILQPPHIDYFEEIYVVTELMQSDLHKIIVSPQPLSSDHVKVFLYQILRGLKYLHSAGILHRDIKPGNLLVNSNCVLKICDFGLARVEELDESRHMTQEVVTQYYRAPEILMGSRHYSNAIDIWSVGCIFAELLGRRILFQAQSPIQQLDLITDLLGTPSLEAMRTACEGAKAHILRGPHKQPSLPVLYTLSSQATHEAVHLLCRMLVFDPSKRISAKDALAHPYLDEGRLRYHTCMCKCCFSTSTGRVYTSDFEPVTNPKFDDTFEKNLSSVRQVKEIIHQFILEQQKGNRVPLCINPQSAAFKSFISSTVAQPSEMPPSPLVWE
As to the kind of experiment: Inhibition of NLK (unknown origin) at 1 uM by radiometric assay relative to control.

Data set [10] has as its target Epithelial discoidin domain-containing receptor 1 (Homo sapiens) (UniProt Q08345). As to the kind of experiment: Inhibition of DDR1 (unknown origin) at 1 uM by radiometric assay relative to control.
In data set [11] the target is Mitogen-activated protein kinase 11 (Homo sapiens, UniProt Q15759). As to the kind of experiment: Inhibition of p38 beta (unknown origin).
Data set [12] can be described thus: Solubility of compound at pH 2 measured for 2 to 5 days by HPLC analysis. The class given is physicochemical. The conditions noted are these: buffer, time 2-5 day.
Data set [13] has as its target Mitogen-activated protein kinase 14 (Homo sapiens, UniProt Q16539). Put plainly: Inhibition of p38 alpha (unknown origin).
A short description of data set [14]: Oral bioavailability in Sprague-Dawley rat at 5 mg/kg measured for 24 hrs by LC-MS/MS analysis. It is filed as ADME, organism-based. The conditions noted are these: in vivo.
Data set [15] in a line: Apparent permeability across apical to basal side in MDCK cells expressing MDR1 at 5 uM incubated for 60 mins by LC/MS/MS analysis. The class given is ADME, cell-based, Canis lupus familiaris, MDCK1. The conditions noted are these: dog.
The target in data set [16] is T2, TGF-beta receptor type-1 (Homo sapiens) (UniProt P36897).
T2 sequence (whole entry): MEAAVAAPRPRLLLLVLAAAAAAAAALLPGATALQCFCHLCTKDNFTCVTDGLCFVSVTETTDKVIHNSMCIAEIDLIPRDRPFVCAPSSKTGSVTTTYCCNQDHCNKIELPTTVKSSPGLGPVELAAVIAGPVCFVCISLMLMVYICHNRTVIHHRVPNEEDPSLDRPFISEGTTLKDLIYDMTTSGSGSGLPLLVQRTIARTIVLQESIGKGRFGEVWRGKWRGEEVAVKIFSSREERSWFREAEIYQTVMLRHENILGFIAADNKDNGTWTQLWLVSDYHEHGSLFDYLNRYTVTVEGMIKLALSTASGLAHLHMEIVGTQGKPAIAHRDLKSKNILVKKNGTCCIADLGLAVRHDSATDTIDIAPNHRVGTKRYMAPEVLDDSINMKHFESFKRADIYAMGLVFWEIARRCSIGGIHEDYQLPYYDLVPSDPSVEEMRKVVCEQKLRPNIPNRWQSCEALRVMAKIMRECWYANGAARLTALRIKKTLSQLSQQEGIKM
As to the kind of experiment: Inhibition of TGFBR1 (unknown origin) at 1 uM by radiometric assay relative to control.

Data set [17] in a line: Intrinsic clearance in human liver microsomes at 1 uM preincubated for 5 mins followed by NADPH addition measured for 60 mins by LC-MS/MS analysis. The class given is ADME, Microsome. The conditions noted are these: time 65 min, read-out: CLH.
For data set [18], the target named is T3, Dual specificity mitogen-activated protein kinase kinase 3 (Homo sapiens) (UniProt P46734).
T3 sequence (whole entry): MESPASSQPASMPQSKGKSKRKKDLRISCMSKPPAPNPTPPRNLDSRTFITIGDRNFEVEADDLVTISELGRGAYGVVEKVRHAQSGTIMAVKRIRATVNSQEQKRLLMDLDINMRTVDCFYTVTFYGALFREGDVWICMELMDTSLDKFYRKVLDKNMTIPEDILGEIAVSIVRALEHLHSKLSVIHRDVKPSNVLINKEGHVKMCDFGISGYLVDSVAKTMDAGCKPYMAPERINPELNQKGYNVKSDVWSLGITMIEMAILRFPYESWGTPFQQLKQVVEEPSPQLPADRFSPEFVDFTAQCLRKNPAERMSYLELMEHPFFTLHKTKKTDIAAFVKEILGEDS
As to the kind of experiment: Inhibition of MKK3 (unknown origin) at 1 uM by radiometric assay relative to control.

Data set [19] is described as follows: Half life in Sprague-Dawley rat at 5 mg/kg, po measured for 24 hrs by LC-MS/MS analysis. The class given is ADME, organism-based. The conditions noted are these: in vivo.
In data set [20] the target is TRAF2 and NCK-interacting protein kinase (Homo sapiens, UniProt Q9UKE5). Put plainly: Inhibition of TNIK (unknown origin) at 1 uM by radiometric assay relative to control.
Data set [21] can be described thus: Cmax in Sprague-Dawley rat at 5 mg/kg, po measured for 24 hrs by LC-MS/MS analysis. The conditions noted are these: in vivo. The class given is ADME, organism-based. Set-up: dose 5 mg/kg, time 24 hrs, route po.
The subject of the next data set is MDR1. Put plainly: Efflux ratio of apparent permeability across basal to apical side over apical to basal side in MDCK cells expressing MDR1 at 5 uM incubated for 60 mins by LC/MS/MS analysis. It is filed as ADME, cell-based, Canis lupus familiaris, MDCK1. The conditions noted are these: dog.
In data set [22] the target is T4, Casein kinase I isoform delta (Homo sapiens, UniProt P48730). As to the kind of experiment: Displacement of kinase tracer 8 from NanoLuc-tagged CK1 delta (unknown origin) transfected in CHO cells by BRET assay. The class given is cell-based. For orientation: In BRET a luciferase serves as donor, and the signal depends on an acceptor being close.
Data set [23] concerns the target T4, Casein kinase I isoform delta. Put plainly: Inhibition of N-terminal GST-tagged recombinant human CK1 delta expressed in Escherichia coli BL21 cells using PLSRTL-pS-VA-pS-LPGL as substrate measured after 60 mins in presence of ATP by ADP-Glo assay. In general terms: ADP-Glo first removes unused ATP, then detects ADP through luciferase.

pIC50: −log10 of the molar value. Values after ≈ are worked out from the molar mass of the structure shown.

Mitogen-activated protein kinase 14, sequence (Q16539 whole entry): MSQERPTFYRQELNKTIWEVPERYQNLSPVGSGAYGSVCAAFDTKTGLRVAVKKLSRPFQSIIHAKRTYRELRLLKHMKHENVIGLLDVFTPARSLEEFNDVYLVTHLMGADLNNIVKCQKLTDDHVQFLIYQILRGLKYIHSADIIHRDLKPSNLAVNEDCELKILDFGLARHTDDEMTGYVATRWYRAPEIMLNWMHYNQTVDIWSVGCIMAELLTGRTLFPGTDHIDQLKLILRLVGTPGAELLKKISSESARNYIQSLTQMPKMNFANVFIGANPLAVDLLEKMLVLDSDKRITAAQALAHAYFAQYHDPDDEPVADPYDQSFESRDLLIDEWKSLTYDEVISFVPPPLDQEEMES
T4 sequence (P48730 whole entry, canonical isoform): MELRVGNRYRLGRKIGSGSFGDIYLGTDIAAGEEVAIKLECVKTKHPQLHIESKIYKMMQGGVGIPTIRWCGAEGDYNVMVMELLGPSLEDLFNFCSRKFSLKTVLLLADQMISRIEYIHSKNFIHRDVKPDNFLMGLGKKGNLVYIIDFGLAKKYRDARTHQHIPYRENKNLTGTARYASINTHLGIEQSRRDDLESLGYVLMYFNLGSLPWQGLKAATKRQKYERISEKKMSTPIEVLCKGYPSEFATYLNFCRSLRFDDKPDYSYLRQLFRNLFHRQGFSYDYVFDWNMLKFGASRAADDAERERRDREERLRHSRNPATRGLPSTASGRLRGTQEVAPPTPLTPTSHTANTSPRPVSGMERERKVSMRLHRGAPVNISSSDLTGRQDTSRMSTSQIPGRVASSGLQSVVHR
Mitogen-activated protein kinase 11, sequence (Q15759 whole entry): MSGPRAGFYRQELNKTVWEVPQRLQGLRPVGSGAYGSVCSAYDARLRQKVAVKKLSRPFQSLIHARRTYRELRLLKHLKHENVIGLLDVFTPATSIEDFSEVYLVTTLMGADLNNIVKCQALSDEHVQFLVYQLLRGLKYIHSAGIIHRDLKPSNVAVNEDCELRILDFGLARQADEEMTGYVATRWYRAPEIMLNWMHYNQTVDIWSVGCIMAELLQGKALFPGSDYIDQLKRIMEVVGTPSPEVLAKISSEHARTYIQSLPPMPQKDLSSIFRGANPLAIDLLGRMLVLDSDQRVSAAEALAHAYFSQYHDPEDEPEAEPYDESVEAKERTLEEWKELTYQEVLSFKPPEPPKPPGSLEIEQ
Receptor-interacting serine/threonine-protein kinase 2 (Homo sapiens), sequence (O43353 whole entry): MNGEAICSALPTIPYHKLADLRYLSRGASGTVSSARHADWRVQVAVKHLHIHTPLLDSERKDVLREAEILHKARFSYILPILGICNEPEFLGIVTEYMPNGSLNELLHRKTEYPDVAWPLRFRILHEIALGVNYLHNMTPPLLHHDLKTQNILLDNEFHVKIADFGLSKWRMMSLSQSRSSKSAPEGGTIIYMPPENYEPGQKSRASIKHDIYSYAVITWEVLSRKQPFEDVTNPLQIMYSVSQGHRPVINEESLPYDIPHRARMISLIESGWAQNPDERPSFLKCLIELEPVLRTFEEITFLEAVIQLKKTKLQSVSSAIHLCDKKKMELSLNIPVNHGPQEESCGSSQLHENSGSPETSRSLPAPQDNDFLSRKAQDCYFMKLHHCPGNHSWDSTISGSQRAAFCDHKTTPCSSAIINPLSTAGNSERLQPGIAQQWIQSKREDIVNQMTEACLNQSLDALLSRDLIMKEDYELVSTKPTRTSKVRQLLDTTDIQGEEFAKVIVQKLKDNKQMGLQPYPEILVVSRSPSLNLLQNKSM
Epithelial discoidin domain-containing receptor 1 (Homo sapiens), sequence (Q08345 whole entry, the tested form may be a part): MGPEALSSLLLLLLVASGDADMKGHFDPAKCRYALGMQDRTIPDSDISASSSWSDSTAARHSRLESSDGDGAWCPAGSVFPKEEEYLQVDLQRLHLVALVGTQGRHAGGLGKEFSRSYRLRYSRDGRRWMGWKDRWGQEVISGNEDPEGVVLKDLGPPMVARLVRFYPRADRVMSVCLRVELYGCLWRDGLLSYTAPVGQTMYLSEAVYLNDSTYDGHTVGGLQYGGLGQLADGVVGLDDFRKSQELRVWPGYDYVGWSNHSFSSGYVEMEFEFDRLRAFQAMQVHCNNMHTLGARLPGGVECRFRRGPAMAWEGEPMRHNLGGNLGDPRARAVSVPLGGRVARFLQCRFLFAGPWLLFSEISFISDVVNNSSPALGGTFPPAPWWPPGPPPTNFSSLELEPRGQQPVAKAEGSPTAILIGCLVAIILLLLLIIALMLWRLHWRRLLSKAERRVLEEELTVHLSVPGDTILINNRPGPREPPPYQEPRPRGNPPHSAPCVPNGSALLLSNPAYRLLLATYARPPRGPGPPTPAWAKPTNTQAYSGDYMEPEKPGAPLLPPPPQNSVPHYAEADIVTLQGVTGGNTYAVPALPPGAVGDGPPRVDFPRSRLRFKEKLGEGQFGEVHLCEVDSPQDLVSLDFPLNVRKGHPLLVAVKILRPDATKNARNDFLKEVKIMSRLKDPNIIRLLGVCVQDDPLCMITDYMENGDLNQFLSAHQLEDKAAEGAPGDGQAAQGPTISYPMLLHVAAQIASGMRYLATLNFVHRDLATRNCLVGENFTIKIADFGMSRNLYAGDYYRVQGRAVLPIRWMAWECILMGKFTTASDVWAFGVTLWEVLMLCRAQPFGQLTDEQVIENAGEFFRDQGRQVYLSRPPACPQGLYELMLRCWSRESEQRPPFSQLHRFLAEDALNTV
TRAF2 and NCK-interacting protein kinase, sequence (Q9UKE5 whole entry, looked up): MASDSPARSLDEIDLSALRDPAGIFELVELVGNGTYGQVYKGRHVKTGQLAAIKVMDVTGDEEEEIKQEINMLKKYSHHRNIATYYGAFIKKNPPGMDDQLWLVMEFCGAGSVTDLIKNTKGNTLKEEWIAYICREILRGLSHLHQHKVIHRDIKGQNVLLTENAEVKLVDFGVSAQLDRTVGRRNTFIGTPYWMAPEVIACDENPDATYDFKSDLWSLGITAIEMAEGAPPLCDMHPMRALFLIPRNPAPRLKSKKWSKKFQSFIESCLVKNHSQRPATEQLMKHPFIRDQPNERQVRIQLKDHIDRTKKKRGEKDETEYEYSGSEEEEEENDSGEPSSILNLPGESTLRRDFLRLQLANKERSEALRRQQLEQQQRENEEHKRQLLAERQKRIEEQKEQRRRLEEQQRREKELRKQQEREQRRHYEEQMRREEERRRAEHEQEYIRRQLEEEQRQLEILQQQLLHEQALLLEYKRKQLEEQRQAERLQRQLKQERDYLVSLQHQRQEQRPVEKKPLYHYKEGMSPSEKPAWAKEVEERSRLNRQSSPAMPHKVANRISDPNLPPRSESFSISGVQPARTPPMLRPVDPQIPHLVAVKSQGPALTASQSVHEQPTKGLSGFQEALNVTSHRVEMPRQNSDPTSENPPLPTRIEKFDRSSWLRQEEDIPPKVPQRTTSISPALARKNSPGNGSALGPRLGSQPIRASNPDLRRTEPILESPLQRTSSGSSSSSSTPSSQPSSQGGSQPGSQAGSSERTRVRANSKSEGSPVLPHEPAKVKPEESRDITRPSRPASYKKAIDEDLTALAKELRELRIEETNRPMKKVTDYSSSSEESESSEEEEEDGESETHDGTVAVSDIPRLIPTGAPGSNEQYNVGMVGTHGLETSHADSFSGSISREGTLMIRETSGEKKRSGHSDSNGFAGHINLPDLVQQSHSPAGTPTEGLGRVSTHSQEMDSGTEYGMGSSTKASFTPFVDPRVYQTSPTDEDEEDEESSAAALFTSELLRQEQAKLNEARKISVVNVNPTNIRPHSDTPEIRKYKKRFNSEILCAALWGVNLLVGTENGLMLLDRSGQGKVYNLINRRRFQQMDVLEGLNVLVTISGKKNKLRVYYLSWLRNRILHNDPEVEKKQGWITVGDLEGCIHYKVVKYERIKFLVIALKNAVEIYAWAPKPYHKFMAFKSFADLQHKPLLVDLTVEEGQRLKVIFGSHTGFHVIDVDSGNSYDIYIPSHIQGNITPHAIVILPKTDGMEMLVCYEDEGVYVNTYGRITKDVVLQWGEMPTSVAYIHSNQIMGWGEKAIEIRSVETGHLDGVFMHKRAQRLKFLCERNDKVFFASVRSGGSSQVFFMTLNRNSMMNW
Mitogen-activated protein kinase kinase kinase 20 (Homo sapiens), sequence (Q9NYL2 2-800 limits assumed): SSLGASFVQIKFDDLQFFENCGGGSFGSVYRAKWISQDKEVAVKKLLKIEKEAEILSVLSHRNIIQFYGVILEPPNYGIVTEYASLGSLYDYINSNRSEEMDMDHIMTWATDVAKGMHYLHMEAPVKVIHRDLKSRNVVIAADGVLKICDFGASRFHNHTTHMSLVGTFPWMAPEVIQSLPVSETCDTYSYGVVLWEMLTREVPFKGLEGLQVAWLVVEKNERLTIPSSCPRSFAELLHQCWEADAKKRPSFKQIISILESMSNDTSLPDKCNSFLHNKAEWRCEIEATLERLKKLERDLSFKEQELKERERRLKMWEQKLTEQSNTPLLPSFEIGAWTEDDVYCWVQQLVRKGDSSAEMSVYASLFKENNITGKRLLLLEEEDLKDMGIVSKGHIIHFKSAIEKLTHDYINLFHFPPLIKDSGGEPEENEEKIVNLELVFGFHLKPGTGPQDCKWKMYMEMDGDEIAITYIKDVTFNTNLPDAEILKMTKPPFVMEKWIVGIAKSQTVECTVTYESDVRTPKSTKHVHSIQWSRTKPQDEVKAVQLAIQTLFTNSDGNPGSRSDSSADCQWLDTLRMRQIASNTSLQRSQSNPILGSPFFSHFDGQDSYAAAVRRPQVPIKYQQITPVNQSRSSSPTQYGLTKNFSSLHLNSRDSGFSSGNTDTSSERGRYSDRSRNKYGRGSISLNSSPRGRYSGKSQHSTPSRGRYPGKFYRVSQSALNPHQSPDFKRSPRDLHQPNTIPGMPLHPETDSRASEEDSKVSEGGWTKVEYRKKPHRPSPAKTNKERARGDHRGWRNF

With `Cn1cc(-c2ccnc3[nH]ccc23)c(-c2ccc(F)cn2)n1`, the inhibition (usually the change of the read-out against control, counted positive when it falls) in [1] worked out at 81%; in data set [3], 100%; in [7], 80%; in data set [9] it was 74%; in [10], 89%; in data set [16], 98%. Besides, the inhibition was determined as 74% in data set [18] and 60% in [20]. Moreover, the microsomal CLint at 1 µM is 53.5 µL/min/mg in [2] and 7.7 µL/min/mg in data set [17]. Moreover, in data set [4], the Vd came out at 0.6 L/kg. Moreover, the solubility in data set [5] and in [12] was greater than 400 µM each time. For the same compound, the AUC(0-inf) (as a rule, total exposure, with the tail of the curve extrapolated) in [6] turned out to be 755 ng·h/mL. Also, the clearance (in general, the rate of elimination divided by the concentration) in [8] is 35 mL/min/kg. The pIC50 – broadly, −log10 of the IC50, conventionally taken in molar units – in [11] is less than 6.00; in [13], 6.03. In addition, the bioavailability (in general, the share of a dose that reaches the circulation, judged against a reference dose that is usually intravenous) in data set [14] came out at 32%. Also, the Papp A→B – broadly, how fast a substance crosses the layer from the apical side – at 1 h, 5 µM in data set [15] worked out at 19.6 ×10⁻⁶ cm/s. Also, in [19], the half-life (usually the time needed for the level to fall by half in the phase considered) was 1.3 h. Further, the concentration in data set [21] peaked (Cmax) at 1600 nM.
In the case of `Cn1cc(-c2ccnc3[nH]ncc23)c(-c2ccc(F)cc2)n1`, the microsomal CLint at 1 µM in data set [2] worked out at 42.2 µL/min/mg; in [17], 9.4 µL/min/mg. Besides, the efflux ratio (in general, the permeability from basolateral to apical divided by that in the opposite direction, in the common usage) at 1 h, 5 µM in the data set with MDR1 is 3. Moreover, in data set [4], the Vd is 1.6 L/kg. The solubility (as a rule, the dissolved amount per volume that the medium holds) came out at 8.7 µM (≈ 2.55 µg/mL) in [5] and 112 µM (≈ 32.9 µg/mL) in data set [12]. In data set [6], this compound displayed an AUC(0-inf) of 2580 ng·h/mL. The compound further yielded a clearance in data set [8] of 23 mL/min/kg. The pIC50 is 7.44 in [22], 6.11 in [11], 8.85 in [23] and 6.60 in data set [13]. The bioavailability in [14] came to 70%. The Papp A→B at 1 h, 5 µM in [15] stood at 27.3 ×10⁻⁶ cm/s. The half-life in data set [19] is 2 h. Also, the peak level in data set [21] (Cmax) was 2400 nM.
`Cn1cc(-c2ccnc3[nH]ccc23)c(-c2ccc(F)cc2)n1`: the results for the microsomal CLint at 1 µM in data set [2] and in data set [17] were 170 µL/min/mg and 45 µL/min/mg, respectively. Also, the efflux ratio at 1 h, 5 µM in the data set with MDR1 was determined as 1.02. The values for the solubility in data set [5] and in data set [12] were less than 4 µM and greater than 400 µM, respectively. Moreover, the pIC50 in data set [11] was 6.60; in data set [23], 8.66; in [13], 6.85. The Papp A→B at 1 h, 5 µM in [15] was found to be 25.9 ×10⁻⁶ cm/s.
